Test results taken from BindingDB's records for doi:10.1016/s0024-3205(03)00272-8 (Merck Research Laboratories, 2003).

What was measured:
[1] = target: T1, Alpha-2C adrenergic receptor (Rattus norvegicus, UniProt P22086)
T1 sequence (P22086 whole entry): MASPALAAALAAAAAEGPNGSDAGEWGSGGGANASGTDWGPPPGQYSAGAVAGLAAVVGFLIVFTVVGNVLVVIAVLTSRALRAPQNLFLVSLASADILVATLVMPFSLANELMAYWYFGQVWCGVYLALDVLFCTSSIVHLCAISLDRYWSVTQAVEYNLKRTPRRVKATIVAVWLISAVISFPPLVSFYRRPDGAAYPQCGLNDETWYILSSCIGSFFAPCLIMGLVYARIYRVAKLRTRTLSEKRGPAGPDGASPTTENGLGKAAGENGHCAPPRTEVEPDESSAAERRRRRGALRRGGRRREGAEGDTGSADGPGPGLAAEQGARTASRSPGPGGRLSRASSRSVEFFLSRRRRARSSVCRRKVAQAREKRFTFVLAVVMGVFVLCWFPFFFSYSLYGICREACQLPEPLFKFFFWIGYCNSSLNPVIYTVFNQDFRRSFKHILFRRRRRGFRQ

[2] = target: T2, Retinoic acid receptor RXR-alpha (Rattus norvegicus, UniProt Q05343)
T2 sequence (Q05343 whole entry): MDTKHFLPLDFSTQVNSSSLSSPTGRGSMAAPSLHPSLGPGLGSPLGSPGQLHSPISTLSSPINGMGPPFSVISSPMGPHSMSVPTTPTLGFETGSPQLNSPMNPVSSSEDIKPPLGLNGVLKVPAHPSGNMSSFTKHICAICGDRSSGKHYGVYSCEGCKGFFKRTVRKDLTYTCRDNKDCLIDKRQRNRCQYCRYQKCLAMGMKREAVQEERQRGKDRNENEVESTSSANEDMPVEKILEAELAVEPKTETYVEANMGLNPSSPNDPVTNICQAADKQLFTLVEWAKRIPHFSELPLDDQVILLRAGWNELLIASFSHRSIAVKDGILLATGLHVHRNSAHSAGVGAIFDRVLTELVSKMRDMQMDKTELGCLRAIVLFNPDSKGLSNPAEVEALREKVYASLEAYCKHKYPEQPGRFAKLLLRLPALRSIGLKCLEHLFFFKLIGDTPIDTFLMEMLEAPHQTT

[3] = target: Metabotropic glutamate receptor 2 (Homo sapiens, UniProt Q14416)
[4] = target: Metabotropic glutamate receptor 1 (Rattus norvegicus, UniProt P23385)
Metabotropic glutamate receptor 1, sequence (P23385 whole entry): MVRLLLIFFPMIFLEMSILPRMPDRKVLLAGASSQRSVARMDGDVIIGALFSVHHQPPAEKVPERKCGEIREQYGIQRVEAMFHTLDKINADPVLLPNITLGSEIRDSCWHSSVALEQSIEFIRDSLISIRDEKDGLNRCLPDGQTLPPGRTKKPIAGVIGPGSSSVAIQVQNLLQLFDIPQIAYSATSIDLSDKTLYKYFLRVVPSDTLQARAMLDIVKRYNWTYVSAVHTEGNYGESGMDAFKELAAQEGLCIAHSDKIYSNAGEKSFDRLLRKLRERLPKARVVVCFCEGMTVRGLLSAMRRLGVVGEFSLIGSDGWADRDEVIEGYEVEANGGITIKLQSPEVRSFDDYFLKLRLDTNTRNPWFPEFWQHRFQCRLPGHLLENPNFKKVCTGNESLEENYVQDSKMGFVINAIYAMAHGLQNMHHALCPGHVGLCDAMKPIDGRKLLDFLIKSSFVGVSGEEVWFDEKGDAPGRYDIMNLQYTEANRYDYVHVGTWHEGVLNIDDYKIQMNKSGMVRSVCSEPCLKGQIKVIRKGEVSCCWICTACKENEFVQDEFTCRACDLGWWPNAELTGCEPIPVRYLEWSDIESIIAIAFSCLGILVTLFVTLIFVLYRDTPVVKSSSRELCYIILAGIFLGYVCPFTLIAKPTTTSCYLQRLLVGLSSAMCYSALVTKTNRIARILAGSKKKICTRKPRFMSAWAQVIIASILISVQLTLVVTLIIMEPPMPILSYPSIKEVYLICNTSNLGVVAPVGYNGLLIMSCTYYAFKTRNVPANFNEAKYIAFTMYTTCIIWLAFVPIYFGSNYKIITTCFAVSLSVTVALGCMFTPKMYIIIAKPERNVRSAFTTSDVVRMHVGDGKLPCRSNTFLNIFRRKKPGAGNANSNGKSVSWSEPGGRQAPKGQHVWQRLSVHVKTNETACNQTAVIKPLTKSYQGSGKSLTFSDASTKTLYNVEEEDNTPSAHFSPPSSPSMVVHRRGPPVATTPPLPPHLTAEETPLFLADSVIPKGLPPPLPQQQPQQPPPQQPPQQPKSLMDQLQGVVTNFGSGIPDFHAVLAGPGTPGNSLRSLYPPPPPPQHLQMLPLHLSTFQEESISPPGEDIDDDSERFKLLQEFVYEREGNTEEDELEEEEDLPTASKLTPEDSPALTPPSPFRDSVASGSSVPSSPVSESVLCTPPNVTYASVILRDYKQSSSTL

Metabotropic glutamate receptor 2, sequence (Q14416 whole entry): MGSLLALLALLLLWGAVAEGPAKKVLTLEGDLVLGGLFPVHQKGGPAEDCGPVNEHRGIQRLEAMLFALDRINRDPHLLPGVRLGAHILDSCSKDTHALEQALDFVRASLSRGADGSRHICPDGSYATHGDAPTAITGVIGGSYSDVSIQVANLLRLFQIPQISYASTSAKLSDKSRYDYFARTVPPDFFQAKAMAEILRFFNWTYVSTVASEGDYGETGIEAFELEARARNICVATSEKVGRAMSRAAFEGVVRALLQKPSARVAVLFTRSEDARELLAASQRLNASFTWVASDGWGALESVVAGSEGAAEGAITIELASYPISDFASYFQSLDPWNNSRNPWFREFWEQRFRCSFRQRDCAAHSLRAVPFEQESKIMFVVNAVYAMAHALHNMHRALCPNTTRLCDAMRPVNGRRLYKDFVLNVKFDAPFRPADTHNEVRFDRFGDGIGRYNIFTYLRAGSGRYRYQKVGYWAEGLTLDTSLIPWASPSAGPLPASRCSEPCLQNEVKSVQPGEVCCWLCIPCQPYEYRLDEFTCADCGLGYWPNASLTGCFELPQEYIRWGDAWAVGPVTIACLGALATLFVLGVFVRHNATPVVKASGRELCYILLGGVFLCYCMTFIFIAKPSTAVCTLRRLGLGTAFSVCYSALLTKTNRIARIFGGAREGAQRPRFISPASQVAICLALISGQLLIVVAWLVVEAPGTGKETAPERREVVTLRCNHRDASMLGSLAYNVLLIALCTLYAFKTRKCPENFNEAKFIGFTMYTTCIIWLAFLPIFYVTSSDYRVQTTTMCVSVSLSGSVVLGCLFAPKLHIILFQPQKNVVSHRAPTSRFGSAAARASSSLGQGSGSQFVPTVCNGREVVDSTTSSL

With `COc1cccc(OC)c1OCCNCC1CSc2ccccc2O1` (centres undefined) [NSC_2325] the Ki [1] was 7.6 µM.
`CC12NC(Cc3ccccc31)c1ccccc12` (centres undefined) [CAS_180081] was tested, and the Ki [2] was 7.6 µM.
`NC1(C(=O)O)CCc2cc(C(=O)O)ccc21` (racemic) [AIDA] showed a Ki [3] of 1.1 µM.
In the case of `NC(C(=O)O)c1ccc(C(=O)O)cc1` (centres undefined) [4-(Amino-carboxy-methyl)-benzoic acid], the Ki [4] is reported as 1.1 µM.
